# Measurements taken from patent publication US11427544B2, “Histone deacetylase 6 inhibitors and use thereof” (TAIPEI MEDICAL UNIVERSITY, priority 2016, dated 2022).
# Structures can show the parent of a compound that is named as a salt.
# Legend:
# HDAC1 = target: T1, HDAC1 (Homo sapiens, UniProt Q13547); assay: Fluorogenic HDAC assay, HDAC1; format: biochemical; conditions: recombinant HDAC1; read-out: Enzyme IC50 HDAC1
# T1 construct: purchased BPS Bioscience Corp
# Description: (§1) Of note, there are eighteen human HDACs. Eleven of them, designated as HDAC1-11, are zinc-dependent. Seven of them, designated as Sirt1-7, are NAD+-dependent.
# (§2) Fluorogenic HDAC assay kits were used to assess the ability of HDAC inhibitors to inhibit deacetylation of lysine residues on a substrate by recombinant proteins HDAC1, 3, 4, 5, 6, 7, 8, 9 and Sirt1 according to the manufacturer's instructions (BPS Bioscience Corp., San Diego, Calif., USA).
# HDAC6 = target: T2, HDAC6 (Homo sapiens, UniProt Q9UBN7); assay: Fluorogenic HDAC assay, HDAC6; format: biochemical
# T2 construct: purchased BPS Bioscience Corp
# T2 sequence (Q9UBN7 1-1215): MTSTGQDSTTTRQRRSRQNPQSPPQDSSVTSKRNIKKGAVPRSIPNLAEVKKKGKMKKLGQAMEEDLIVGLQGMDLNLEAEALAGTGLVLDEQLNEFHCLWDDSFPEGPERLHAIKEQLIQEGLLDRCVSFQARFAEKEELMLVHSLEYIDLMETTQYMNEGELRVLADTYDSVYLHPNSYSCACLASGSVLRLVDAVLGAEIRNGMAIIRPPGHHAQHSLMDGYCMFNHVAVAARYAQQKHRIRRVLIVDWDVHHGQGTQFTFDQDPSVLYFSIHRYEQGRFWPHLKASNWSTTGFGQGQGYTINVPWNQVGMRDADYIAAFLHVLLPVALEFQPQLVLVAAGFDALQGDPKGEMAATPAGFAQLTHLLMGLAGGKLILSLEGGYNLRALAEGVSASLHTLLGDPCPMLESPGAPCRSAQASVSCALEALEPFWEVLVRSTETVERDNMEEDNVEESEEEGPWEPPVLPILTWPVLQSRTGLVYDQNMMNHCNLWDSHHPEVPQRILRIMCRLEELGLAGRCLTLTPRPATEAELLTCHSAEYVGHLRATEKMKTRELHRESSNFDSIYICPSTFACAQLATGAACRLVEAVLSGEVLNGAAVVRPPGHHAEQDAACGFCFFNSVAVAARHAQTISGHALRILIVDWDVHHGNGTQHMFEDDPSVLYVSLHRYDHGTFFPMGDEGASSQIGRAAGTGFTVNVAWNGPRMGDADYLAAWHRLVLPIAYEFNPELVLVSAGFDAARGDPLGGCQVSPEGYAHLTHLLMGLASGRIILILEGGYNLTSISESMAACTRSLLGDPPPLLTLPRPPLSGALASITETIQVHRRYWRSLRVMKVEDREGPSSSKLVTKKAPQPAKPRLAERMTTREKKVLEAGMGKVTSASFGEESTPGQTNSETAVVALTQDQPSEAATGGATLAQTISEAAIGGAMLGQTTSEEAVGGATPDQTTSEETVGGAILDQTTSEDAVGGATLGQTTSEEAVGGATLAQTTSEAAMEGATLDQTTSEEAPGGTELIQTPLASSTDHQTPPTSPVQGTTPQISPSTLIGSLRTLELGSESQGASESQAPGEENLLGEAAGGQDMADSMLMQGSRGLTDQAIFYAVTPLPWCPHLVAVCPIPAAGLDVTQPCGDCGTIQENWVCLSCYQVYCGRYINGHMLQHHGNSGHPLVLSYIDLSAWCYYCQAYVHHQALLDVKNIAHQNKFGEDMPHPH
# Description: as §1, §2
# [1] = tested on: PC-3 prostate cancer cell line; assay: Antiproliferative activity, PC-3; format: cell-based, human; conditions: Homo sapiens
# Description: (§3) A study was conducted to evaluate the inhibitory activity of compounds of Formula (I) in inhibiting HDAC6, antiproliferative activity of test compounds in suppressing cancer cell growth, and selectivity of inhibiting HDAC6 over other HDAC isoforms.
# (§4) The study was performed according to the protocol reported in Hsieh et al., Cell Death and Disease, 2014, April; 5:e1166.
# (§5) Shown in Table 2 below are antiproliferative activities (measured by their half maximal concentration for inhibiting cell growth, i.e., GI50) of the test compounds against various cancer cell lines.
# [2] = tested on: A549 lung cancer cell line; assay: Antiproliferative activity, A549; format: cell-based, human; conditions: Homo sapiens
# Description: as §3, §4, §5
# [3] = tested on: APP in pCAX APP 695 plasmid-transfected Neuro 2a cells; assay: Amyloid precursor protein (APP) levels, Western blot; format: cell-based; conditions: pCAX APP 695 transfected neuro 2a cells; 0.1-10 μM, 24 hours
# Description: (§6) A study was conducted to evaluate the effect of compounds of Formula (I) in amyloid precursor protein (APP) levels and Aβ42 production.
# Neuro 2a cells (1×10^6) in 6-well plates were transfected with pCAX APP 695 plasmid for 24 hours, then incubated for another 24 hours with Compound 12, Compound 28, or tubasatin A (0.1-10 μM). Cells were then harvested and cell lysates were prepared for Western blot analysis of the APP proteins.
# [4] = tested on: Aβ42 production in pCAX APP 695 plasmid-transfected Neuro 2a and SH—SYSY cells; assay: Aβ42 production in cell culture supernatants; format: cell-based; conditions: pCAX APP 695 transfected Neuro 2a and SH—SYSY cells; 0.1-10 μM, 24 hours
# Description: as §6
# Moreover, neuro 2a or SH—SYSY cells (1×10^5) were transfected with pCAX APP 695 plasmid for 24 hours, followed by incubation with Compound 12 or Compound 28 (0.1-10 μM) for another 24 hours. Cell culture supernatants were assayed for Aβ42 production.
# [5] = tested on: HL-60 Acute promyelocytic leukemia; assay: Tumor growth inhibition, HL-60 xenograft; format: in vivo, athymic nude mice; conditions: 50 mg/kg, qd, intraperitoneal
# Description: (§7) An in vivo study was conducted to evaluate the efficacy of compounds of Formula (I) in suppressing tumor growth in multiple human cancer types.
# (§8) Eight-week-old athymic nude mice were group-housed under conditions of constant photoperiod (12 h light/12 h dark at 21-23° C. and 60-85% humidity) with ad libitum access to sterilized food and water. All animal experiments followed ethical standards, and protocols were reviewed and approved by the Animal Use and Management Committee of National Taiwan University. Each mouse was inoculated subcutaneously with 1×10^6˜1×10^7 human cancer cells in a total volume of 0.1 mL serum-free medium containing 50% Matrigel (BD Biosciences). As tumors became established (˜100 mm^3), mice were randomized to various groups to be treated with pre-determined materials (n=6-8/group): (i) control group: 0.5% DMSO/0.5% Cremophor/90% D5W and (ii) treatment groups: Compounds 12 and 28 at pre-determined doses daily. Mice received treatment by intraperitoneal injection for the duration of the study. Tumors were measured weekly using calipers. Tumor size, in mm^3, was calculated according to the formula: Tumor volume=(w^2×l)/2, where w and 1 respectively represent the width and length (both in mm) of the tumor.
# [6] = tested on: BJAB Burkitt lymphoma-derived B-cell; assay: Tumor growth inhibition, BJAB xenograft; format: in vivo, athymic nude mice; conditions: 50 mg/kg, qd, intraperitoneal
# Description: as §7, §8
# [7] = Safety in ICR mice, 7-day intraperitoneal dosing; format: in vivo; conditions: 50, 100, and 200 mg/kg intraperitoneally once a day for 7 days, monitored another 7 days
# Description: In addition, both Compounds 12 and 28 were studied to evaluate their safety in animals.
# […]. The animals were dosed intraperitoneally once a day for 7 days and then monitored for another 7 days. The animals were weighed daily for 1 week and then twice weekly.
# [8] = tested on: scopolamine-induced memory deficit; assay: Water maze test, scopolamine-treated rats; format: in vivo; conditions: gavage twice daily for seven days; scopolamine 1.5 mg/kg i.p.
# Description: An in vivo study was conducted to evaluate the efficacy of compounds of Formula (I) in improving memory deficits associated with Alzheimer's disease.
# (§9) Compound 12, Compound 28, suberanilohydroxamic acid (50 mg/kg) or vehicle was given to rats by gavage twice daily for seven days prior to behavioral experiments. On the day conducting a behavior assessment, rats in all groups except the control group were administered scopolamine (1.5 mg/kg) by intraperitoneal injection for 30 minutes before the assessment, then a water maze test or an elevated plus maze test was performed.
# [9] = tested on: scopolamine-induced memory deficit; assay: Elevated plus maze test, scopolamine-treated rats; format: in vivo; conditions: gavage twice daily for seven days; scopolamine 1.5 mg/kg i.p.
# Description: as §9, with “An in vivo study was conducted to evaluate the efficacy of compounds of Formula (I) in improving memory deficits associated with Alzheimer's disease. Compound 12,” for “Compound 12,”, “was performed. […] The significant reduction in transfer latency time indicated improvement in memory.” for “was performed.”
# [10] = tested on: MDA-MB-231 Breast cancer cell line; assay: Antiproliferative activity, MDA-MB-231; format: cell-based, human; conditions: MDA-MB-231; mesylate
# Description: as §3, §4, §5
# [11] = tested on: T98 Glioblastoma cell line; assay: Antiproliferative activity, T98; format: cell-based, human; conditions: T98; mesylate
# Description: as §3, §4, §5
# T1 sequence (Q13547 whole entry): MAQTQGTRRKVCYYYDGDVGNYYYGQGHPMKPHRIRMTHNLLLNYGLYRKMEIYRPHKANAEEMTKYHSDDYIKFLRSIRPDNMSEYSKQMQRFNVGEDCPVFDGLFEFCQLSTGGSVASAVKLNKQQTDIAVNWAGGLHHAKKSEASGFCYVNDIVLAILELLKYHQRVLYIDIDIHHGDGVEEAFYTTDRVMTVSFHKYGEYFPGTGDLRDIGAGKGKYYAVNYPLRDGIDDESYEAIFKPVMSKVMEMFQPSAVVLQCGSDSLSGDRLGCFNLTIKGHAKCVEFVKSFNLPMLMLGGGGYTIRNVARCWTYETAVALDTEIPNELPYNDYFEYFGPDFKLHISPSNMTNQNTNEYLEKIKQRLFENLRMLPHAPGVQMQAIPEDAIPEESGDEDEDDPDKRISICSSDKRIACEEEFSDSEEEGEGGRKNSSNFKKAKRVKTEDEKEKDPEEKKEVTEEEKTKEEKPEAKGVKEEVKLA
SMILES,IC50 (HDAC1) [nM],IC50 (HDAC6) [nM],GI50 [1] [nM],GI50 [2] [nM],APP expression [3],Aβ42 production [4],% TGI [5] [%],% TGI [6] [%],tolerability [7],time spent in the correct quadrant (water maze) [8],transfer latency time (elevated plus maze) [9],GI50 [10] [nM],GI50 [11] [nM]
"O=C(NO)c1ccc(CNc2cccc3ncccc23)cc1 [Compound 12, N-hydroxy-4-((quinolin-5-ylamino)methyl)benzamide]",2650,2.73,3280 ± 110,5530 ± 240,markedly reduced the APP expression,decreased Aβ42 production,72.2,64.5,well tolerated,markedly reverse this effect,significantly rescued scopolamine-mediated increase of transfer latency time,,
"O=C(NO)c1ccc(CNc2cccc3cccnc23)cc1 [Compound 28-mesylate, N-Hydroxy-4-(quinolin-8-ylaminomethyl)-benzamide mesylate]",,,,,,,,,,,,1360 ± 250,10800 ± 830
